Assay results reported in article PMC9832397 (Nature chemistry, 2022).

Experiments:
[1] = biological target: T1, MAT (malonyl-/acetyl transferase domain of murine FAS) (Mus musculus, UniProt P19096); assay: enzyme-coupled fluorometric transacylation assay; assay type: biochemical; conditions: individual domains; acceptor DEBS ACP6 presumed
T1 sequence (P19096 488-816 limits assumed): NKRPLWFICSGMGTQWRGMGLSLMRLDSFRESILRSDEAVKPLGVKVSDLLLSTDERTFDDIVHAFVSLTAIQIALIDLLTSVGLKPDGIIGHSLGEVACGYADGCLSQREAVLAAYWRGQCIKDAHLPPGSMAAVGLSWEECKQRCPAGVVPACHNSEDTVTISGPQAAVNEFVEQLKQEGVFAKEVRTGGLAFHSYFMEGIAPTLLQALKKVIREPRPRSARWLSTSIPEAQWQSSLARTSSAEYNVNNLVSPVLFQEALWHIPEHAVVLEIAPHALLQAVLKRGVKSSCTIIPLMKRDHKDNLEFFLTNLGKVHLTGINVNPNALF

DEBS M6+TE (WT) = DEBS M6+TE (WT) (Saccharopolyspora erythraea, UniProt Q03133); assay: NADPH consumption assay; assay type: biochemical; conditions: 400 mM phosphate pH 7.2, 25 °C
DEBS M6+TE (WT), sequence (Q03133 1470-3172 limits assumed): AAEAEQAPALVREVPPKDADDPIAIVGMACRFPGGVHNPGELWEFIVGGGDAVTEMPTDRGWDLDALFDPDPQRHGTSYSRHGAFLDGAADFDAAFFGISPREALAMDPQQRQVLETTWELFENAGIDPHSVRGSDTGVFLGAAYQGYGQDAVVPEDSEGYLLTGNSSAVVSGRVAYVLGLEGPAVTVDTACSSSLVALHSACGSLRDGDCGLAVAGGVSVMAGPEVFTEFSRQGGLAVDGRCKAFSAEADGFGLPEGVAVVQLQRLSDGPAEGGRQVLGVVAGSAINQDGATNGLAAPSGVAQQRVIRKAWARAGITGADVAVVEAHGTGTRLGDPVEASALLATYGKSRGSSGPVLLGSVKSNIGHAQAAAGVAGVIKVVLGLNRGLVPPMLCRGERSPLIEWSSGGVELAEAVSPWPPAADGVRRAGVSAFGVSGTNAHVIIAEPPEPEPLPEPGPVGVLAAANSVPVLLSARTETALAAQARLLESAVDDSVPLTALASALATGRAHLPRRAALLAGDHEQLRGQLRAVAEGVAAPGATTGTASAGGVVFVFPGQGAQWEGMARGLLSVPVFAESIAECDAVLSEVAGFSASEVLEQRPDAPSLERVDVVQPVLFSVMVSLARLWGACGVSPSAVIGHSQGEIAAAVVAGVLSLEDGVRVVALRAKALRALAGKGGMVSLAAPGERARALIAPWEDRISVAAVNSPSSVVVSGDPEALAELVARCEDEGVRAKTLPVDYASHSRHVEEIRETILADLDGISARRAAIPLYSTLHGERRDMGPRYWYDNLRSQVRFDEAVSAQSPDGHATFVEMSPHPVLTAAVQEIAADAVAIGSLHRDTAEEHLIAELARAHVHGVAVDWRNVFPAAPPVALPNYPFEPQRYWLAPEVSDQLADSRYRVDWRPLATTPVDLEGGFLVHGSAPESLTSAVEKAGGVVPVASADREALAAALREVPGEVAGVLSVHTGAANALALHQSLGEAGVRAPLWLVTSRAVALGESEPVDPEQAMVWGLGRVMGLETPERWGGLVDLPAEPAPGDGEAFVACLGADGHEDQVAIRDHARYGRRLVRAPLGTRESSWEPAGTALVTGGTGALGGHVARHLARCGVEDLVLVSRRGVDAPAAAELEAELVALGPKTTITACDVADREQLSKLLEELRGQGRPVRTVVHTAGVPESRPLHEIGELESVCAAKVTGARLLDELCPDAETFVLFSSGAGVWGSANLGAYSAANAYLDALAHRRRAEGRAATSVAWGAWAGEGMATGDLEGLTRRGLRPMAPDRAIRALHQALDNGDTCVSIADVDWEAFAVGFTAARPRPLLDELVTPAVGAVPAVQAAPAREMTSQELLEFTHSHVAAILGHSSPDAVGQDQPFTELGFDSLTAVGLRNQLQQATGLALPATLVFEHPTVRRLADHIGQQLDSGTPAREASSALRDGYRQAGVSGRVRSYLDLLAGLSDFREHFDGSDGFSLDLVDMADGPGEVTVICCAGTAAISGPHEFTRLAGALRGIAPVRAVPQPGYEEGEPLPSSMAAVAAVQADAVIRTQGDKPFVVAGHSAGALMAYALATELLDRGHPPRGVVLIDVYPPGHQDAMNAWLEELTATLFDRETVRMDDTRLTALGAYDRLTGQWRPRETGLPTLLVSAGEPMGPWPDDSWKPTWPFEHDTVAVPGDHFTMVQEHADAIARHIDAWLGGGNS

[2] = biological target: DEBS module 6 including its C-terminal TE domain (DEBS M6+TE), wildtype (Saccharopolyspora erythraea); assay: SEC

DEBS module 6 including its C-terminal TE domain (DEBS M6+TE), wildtype (domain or fragment), sequence (Q03133 2-3172): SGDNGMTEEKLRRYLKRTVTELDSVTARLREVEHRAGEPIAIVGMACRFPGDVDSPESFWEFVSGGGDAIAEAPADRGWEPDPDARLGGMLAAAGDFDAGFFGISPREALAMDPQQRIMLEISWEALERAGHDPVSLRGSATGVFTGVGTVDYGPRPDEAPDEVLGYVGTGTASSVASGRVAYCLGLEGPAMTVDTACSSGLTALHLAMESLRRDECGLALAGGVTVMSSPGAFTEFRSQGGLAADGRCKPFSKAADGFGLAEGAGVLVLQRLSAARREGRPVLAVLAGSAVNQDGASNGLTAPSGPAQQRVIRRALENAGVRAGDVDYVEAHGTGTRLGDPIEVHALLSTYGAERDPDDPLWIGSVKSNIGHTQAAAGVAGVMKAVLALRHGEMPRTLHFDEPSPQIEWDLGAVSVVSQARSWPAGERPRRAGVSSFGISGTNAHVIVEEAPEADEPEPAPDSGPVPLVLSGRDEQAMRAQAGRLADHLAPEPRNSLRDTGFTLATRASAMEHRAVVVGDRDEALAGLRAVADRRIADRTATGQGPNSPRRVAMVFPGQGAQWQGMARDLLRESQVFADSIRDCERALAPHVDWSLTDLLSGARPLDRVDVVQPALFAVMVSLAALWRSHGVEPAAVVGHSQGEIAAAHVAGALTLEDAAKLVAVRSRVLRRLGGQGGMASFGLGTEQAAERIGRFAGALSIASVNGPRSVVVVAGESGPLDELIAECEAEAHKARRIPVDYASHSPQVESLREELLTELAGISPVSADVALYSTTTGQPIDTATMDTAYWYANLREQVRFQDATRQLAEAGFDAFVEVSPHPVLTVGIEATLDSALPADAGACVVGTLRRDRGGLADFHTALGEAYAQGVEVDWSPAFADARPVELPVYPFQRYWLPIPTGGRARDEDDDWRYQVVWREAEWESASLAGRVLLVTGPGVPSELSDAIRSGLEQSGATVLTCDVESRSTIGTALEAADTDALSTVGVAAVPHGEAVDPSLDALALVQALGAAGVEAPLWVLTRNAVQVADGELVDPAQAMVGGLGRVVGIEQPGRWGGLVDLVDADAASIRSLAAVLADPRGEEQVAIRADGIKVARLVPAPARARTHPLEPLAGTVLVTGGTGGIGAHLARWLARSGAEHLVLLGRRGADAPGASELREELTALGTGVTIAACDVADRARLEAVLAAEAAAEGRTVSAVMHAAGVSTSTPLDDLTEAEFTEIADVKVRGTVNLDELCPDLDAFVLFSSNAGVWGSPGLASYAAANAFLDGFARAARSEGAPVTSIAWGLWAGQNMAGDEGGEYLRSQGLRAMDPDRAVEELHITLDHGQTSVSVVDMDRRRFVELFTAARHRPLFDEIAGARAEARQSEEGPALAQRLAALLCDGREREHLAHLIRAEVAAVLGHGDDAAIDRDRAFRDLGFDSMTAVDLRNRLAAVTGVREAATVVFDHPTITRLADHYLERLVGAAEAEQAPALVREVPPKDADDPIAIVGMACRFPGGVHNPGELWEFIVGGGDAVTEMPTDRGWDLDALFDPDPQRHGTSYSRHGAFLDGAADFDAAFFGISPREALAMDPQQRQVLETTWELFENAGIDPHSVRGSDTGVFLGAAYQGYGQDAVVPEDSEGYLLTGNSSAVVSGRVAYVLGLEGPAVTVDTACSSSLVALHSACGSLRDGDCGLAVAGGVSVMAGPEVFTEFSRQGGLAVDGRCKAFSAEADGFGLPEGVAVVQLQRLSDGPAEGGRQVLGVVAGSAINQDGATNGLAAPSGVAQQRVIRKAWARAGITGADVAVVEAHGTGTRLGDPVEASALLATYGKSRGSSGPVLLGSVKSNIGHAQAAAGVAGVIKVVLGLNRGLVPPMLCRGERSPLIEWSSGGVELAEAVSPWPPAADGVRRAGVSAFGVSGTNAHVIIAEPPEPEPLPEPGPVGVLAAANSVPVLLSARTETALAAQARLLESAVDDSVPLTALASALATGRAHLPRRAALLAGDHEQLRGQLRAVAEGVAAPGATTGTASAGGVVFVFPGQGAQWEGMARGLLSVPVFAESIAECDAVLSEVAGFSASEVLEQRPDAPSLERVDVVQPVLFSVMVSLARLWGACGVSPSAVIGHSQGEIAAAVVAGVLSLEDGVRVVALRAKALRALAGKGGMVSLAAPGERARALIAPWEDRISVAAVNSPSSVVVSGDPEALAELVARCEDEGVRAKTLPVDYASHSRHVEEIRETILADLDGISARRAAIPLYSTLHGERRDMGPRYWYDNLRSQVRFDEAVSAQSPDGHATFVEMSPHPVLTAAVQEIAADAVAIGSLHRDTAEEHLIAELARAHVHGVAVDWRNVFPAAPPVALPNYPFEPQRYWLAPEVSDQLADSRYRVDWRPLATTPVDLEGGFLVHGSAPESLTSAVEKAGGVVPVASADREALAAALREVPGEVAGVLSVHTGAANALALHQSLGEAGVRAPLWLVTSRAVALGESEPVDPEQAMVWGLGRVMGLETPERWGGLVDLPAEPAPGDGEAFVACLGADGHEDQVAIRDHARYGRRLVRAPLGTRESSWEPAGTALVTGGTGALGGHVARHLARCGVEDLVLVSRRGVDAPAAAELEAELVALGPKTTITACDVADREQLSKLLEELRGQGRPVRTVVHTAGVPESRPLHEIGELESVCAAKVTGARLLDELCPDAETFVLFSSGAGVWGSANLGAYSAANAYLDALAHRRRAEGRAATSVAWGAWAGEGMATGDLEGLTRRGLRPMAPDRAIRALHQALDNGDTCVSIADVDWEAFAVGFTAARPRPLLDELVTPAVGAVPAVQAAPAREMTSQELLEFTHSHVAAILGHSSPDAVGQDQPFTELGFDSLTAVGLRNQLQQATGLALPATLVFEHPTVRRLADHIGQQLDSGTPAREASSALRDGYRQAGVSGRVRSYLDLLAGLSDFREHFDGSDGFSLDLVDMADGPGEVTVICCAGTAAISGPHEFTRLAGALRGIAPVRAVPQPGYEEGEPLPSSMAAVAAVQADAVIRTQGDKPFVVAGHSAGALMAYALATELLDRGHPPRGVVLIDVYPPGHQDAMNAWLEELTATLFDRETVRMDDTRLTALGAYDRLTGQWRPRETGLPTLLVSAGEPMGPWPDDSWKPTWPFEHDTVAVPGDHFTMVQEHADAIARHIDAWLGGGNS

CC(C)(COP(=O)(O)OP(=O)(O)OC[C@H]1O[C@@H](n2cnc3c(N)ncnc32)[C@H](O)[C@@H]1OP(=O)(O)O)[C@@H](O)C(=O)NCCC(=O)NCCSC(=O)C(F)C(=O)O (mixture of isomers) [compound 1, F-Mal-CoA]
Km [1]: we observed excellent transfer kinetics of MAT for F-Mal-CoA

CC(F)(C(=O)O)C(=O)SCCNC(=O)CCNC(=O)[C@H](O)C(C)(C)COP(=O)(O)OP(=O)(O)OC[C@H]1O[C@@H](n2cnc3c(N)ncnc32)[C@H](O)[C@@H]1OP(=O)(O)O (mixture of isomers) [compound 17, F-MM-CoA]
Km [1]: the MAT showed excellent transfer kinetics for F-MM-CoA

CC(C(=O)O)C(=O)SCCNC(=O)CCNC(=O)[C@H](O)C(C)(C)COP(=O)(O)OP(=O)(O)OC[C@H]1O[C@@H](n2cnc3c(N)ncnc32)[C@H](O)[C@@H]1OP(=O)(O)O (some centres unmarked) [MM-CoA]
turnover rate (DEBS M6+TE (WT); diketide 2, NADPH): Turnover rates for the WT-, H1- and H2-mediated formation of TKLs

CC[C@@H](O)[C@H](C)C(=O)SCCNC(C)=O [compound 2, (2S,3R)-2-methyl-3-hydroxypentanoyl-N-acetylcysteamine thioester]
turnover rate (DEBS M6+TE (WT); MM-CoA, NADPH): Turnover rates for the WT-, H1- and H2-mediated formation of TKLs

DEBS module 6 including its C-terminal TE domain (DEBS M6+TE), wildtype (domain or fragment)
stoichiometry N [2]: 2
